Values of other authors in publication PMC9516332 (Frontiers in Oncology, 2022).

How the values were obtained:
[1] = target: panel of 255 wild-type kinases (Homo sapiens, UniProt P29317); conditions: kinase EPHA2; 1 µmol/L single concentration; ref DOI: 10.1371/journal.pone.0092146; cited from earlier work
[2] = target: panel of 255 wild-type kinases (Homo sapiens, UniProt P35916); conditions: kinase FLT4; 1 µmol/L single concentration; ref DOI: 10.1371/journal.pone.0092146; cited from earlier work
[3] = target: T1, panel of 255 wild-type kinases (Homo sapiens, UniProt P54753); conditions: kinase EPHB3; 1 µmol/L single concentration; ref DOI: 10.1371/journal.pone.0092146; cited from earlier work
T1 sequence (P54753 34-998): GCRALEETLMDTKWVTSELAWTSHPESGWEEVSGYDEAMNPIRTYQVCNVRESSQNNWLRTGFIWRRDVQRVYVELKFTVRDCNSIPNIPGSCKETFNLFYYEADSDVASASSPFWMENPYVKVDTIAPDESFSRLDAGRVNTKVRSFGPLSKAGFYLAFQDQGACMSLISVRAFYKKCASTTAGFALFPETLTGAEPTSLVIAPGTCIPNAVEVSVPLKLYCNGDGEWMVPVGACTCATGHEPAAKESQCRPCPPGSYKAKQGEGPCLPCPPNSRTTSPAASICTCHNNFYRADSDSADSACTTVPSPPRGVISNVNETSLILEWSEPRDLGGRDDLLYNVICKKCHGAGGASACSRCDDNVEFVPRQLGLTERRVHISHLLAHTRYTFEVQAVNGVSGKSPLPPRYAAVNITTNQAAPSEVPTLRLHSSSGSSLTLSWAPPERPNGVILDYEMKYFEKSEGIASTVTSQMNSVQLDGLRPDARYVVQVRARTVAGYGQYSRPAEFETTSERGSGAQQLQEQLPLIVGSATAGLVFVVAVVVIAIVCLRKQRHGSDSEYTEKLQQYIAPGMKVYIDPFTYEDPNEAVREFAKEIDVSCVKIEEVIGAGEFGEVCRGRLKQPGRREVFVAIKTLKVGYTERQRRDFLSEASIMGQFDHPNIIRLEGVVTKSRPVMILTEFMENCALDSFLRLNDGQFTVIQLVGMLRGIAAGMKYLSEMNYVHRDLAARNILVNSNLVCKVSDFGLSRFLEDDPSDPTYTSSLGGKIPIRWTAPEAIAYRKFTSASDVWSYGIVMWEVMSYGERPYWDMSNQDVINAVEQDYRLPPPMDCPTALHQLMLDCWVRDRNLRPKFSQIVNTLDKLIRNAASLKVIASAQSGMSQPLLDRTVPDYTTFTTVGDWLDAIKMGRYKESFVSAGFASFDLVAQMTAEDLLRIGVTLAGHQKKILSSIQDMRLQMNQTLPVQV

[4] = target: panel of 255 wild-type kinases (Homo sapiens, UniProt Q5VT25); conditions: MRCKα; 1 µmol/L single concentration; ref DOI: 10.1371/journal.pone.0092146; cited from earlier work
[5] = target: panel of 255 wild-type kinases (Homo sapiens, UniProt Q86V86); conditions: kinase PIM3; 1 µmol/L single concentration; ref DOI: 10.1371/journal.pone.0092146; cited from earlier work
[6] = target: panel of 255 wild-type kinases (Homo sapiens, UniProt Q9H2X6); conditions: kinase HIPK2; 1 µmol/L single concentration; ref DOI: 10.1371/journal.pone.0092146; cited from earlier work
[7] = target: panel of 255 wild-type kinases (Homo sapiens, UniProt Q9H4A3); conditions: kinase WNK1; 1 µmol/L single concentration; ref DOI: 10.1371/journal.pone.0092146; cited from earlier work
[8] = target: T2, panel of 255 wild-type kinases (Homo sapiens, UniProt Q9UL54); conditions: kinase TAOK2; 1 µmol/L single concentration; ref DOI: 10.1371/journal.pone.0092146; cited from earlier work
T2 sequence (Q9UL54 1-1235): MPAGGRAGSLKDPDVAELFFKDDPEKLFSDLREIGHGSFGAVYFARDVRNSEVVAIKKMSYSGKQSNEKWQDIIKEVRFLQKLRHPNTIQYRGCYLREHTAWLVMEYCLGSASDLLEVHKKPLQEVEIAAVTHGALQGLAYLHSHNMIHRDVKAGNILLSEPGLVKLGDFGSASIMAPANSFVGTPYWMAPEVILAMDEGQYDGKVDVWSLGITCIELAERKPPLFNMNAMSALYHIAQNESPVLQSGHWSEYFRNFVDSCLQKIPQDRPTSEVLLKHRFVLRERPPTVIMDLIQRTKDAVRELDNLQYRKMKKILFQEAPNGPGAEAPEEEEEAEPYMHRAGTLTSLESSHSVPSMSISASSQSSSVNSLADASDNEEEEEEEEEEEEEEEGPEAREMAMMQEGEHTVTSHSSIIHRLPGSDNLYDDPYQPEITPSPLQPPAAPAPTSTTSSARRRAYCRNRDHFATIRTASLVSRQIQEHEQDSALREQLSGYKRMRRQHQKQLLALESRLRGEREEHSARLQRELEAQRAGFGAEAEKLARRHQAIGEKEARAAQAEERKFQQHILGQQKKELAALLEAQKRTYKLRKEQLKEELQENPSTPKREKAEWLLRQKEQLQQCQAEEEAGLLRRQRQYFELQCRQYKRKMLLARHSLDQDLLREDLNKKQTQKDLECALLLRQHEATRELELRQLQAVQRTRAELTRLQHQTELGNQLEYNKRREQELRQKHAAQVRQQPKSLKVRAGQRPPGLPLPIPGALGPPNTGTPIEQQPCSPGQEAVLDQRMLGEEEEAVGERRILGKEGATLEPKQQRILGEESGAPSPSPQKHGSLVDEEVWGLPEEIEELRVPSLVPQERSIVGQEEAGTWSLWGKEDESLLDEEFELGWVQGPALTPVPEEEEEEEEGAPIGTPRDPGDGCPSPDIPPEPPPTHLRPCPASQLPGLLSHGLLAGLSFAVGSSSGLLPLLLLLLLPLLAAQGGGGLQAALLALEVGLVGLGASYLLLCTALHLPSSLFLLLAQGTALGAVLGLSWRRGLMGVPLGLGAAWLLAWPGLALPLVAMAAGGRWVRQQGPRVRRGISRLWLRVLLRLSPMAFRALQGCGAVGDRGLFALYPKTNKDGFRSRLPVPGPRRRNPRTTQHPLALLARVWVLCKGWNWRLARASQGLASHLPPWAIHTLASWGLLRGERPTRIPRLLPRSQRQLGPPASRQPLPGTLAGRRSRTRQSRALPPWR

For `CCCS(=O)(=O)Nc1ccc(F)c(C(=O)c2c[nH]c3ncc(-c4ccc(Cl)cc4)cc23)c1F` [vemurafenib], the “%-inhibition at 1 µmol/L, EPHA2” value [1] is given as 0.715%, the “%-inhibition at 1 µmol/L, FLT4” value [2] is given as 24% and the “%-inhibition at 1 µmol/L, EPHB3” value [3] is given as 2%. The “%-inhibition, MRCKα” value [4] was 0.383%, the “%-inhibition at 1 µmol/L, PIM3” value [5] was -5% and the “%-inhibition at 1 µmol/L, HIPK2” value [6] was -5%. The “%-inhibition at 1 µmol/L, WNK1” value [7] was 10% and the “%-inhibition at 1 µmol/L, TAOK2” value [8] was 5.35%.
